Drawing on patent US20090124817A1 (The Industry & Academic Cooperation in Chungnam National …, priority 2007, published 2009), this text covers Mean particle size and Specific surface area for seven molecules.

A short description of data set [1]: Particle size by dynamic light scattering / laser diffraction. In kind it is physicochemical. The procedure: (§1) The particle size and particle size distribution of samples were determined by dynamic light scattering (DLS) using electrophoretic light scattering spectrophotometer (ELS-8000, Otsuka Electronics, Japan) at a fixed angle of 90° and at room temperature. The samples were dispersed in mineral oil (Macrol 52, Exxon Mobil Co., USA) and sonicated before measurement. The particle size and particle size distribution of samples were also determined with a Sympatec laser diffraction analyzer (HELOS/RODOS, Clausthal-Zellerfeld, Germany) consisted of a laser sensor HELOS and a RODOS dry-powder air-dispersion system. The specific surface area was determined using the gas adsorption method. Calculation is based on the BET equation. Surface Area Analyzer ASAP 2010 (Micromeritics Instrument Corporation, USA) was used.

A short description of data set [2]: Specific surface area by gas adsorption (BET). It is filed as physicochemical. The settings on record: BET equation. The procedure:
as §1

[3] abbreviates: DLS, dispersed in mineral oil, room temperature.

For `CC(C)c1c(C(=O)Nc2ccccc2)c(-c2ccccc2)c(-c2ccc(F)cc2)n1CC[C@@H](O)C[C@@H](O)CC(=O)[O-].CC(C)c1c(C(=O)Nc2ccccc2)c(-c2ccccc2)c(-c2ccc(F)cc2)n1CC[C@@H](O)C[C@@H](O)CC(=O)[O-].[Ca+2]` [Example 2, atorvastatin calcium], in data set [1] (setting [3]), the Mean particle size is listed as 179 nm. Further, the Specific surface area in data set [2] is 90.28 m^2/g.

`CC(C)c1c(C(=O)Nc2ccccc2)c(-c2ccccc2)c(-c2ccc(F)cc2)n1CC[C@@H](O)C[C@@H](O)CC(=O)[O-].CC(C)c1c(C(=O)Nc2ccccc2)c(-c2ccccc2)c(-c2ccc(F)cc2)n1CC[C@@H](O)C[C@@H](O)CC(=O)[O-].[Ca+2]` [Comparative Example 1, atorvastatin calcium, reference compound]: the Mean particle size in data set [1] (DLS / laser diffraction) is 7.31 μm. In addition, the Specific surface area in data set [2] was 0.95 m^2/g.

In data set [1] (setting [3]), `CC(C)c1c(C(=O)Nc2ccccc2)c(-c2ccccc2)c(-c2ccc(F)cc2)n1CC[C@@H](O)C[C@@H](O)CC(=O)[O-].CC(C)c1c(C(=O)Nc2ccccc2)c(-c2ccccc2)c(-c2ccc(F)cc2)n1CC[C@@H](O)C[C@@H](O)CC(=O)[O-].[Ca+2]` [Example 9, atorvastatin calcium] returned a Mean particle size of 265 nm. The Specific surface area in data set [2] was 47.82 m^2/g.

For `CC(C)c1c(C(=O)Nc2ccccc2)c(-c2ccccc2)c(-c2ccc(F)cc2)n1CC[C@@H](O)C[C@@H](O)CC(=O)[O-].CC(C)c1c(C(=O)Nc2ccccc2)c(-c2ccccc2)c(-c2ccc(F)cc2)n1CC[C@@H](O)C[C@@H](O)CC(=O)[O-].[Ca+2]` [Example 10, atorvastatin calcium], the Mean particle size in data set [1] (setting [3]) is reported as 727 nm. This molecule returned a Specific surface area in data set [2] of 30.88 m^2/g.

In the case of `CC(C)c1c(C(=O)Nc2ccccc2)c(-c2ccccc2)c(-c2ccc(F)cc2)n1CC[C@@H](O)C[C@@H](O)CC(=O)[O-].CC(C)c1c(C(=O)Nc2ccccc2)c(-c2ccccc2)c(-c2ccc(F)cc2)n1CC[C@@H](O)C[C@@H](O)CC(=O)[O-].[Ca+2]` [Starting material, atorvastatin calcium, reference compound], in data set [1] (DLS / laser diffraction), the Mean particle size is listed as 3.87 μm. Besides, in data set [2], the Specific surface area is reported as 14.56 m^2/g.

In data set [1] (setting [3]), `CC(C)c1c(C(=O)Nc2ccccc2)c(-c2ccccc2)c(-c2ccc(F)cc2)n1CC[C@@H](O)C[C@@H](O)CC(=O)[O-].CC(C)c1c(C(=O)Nc2ccccc2)c(-c2ccccc2)c(-c2ccc(F)cc2)n1CC[C@@H](O)C[C@@H](O)CC(=O)[O-].[Ca+2]` [Example 25, atorvastatin calcium] returned a Mean particle size of 65 nm. Further, the Specific surface area in data set [2] is 120.35 m^2/g.

On to `CC(C)c1c(C(=O)Nc2ccccc2)c(-c2ccccc2)c(-c2ccc(F)cc2)n1CC[C@@H](O)C[C@@H](O)CC(=O)[O-].CC(C)c1c(C(=O)Nc2ccccc2)c(-c2ccccc2)c(-c2ccc(F)cc2)n1CC[C@@H](O)C[C@@H](O)CC(=O)[O-].[Ca+2]` [Example 18, atorvastatin calcium], for which the Mean particle size in data set [1] (setting [3]) was 155 nm. In data set [2], this molecule registered a Specific surface area of 79.78 m^2/g.
